# Columns and labels:
# Format in all cases: cell-based
# [1] = tested on: A-549 (monolayer culture of a human lung carcinoma); assay: Antitumour screening, A-549 cell growth (crystal violet); details: approximate IC50, three days of incubation
# Experimental: (§1) Cell Cultures. Cells were maintained in logarithmic phase of growth in Eagle's Minimum Essential Medium, with Earle's Balanced Salts, with 2.0 mM L-glutamine, with non-essential amino acids, without sodium bicarbonate (EMEM/neaa); supplemented with 10% Fetal Calf Serum (FCS), 10^−2 M sodium bicarbonate and 0.1 g/l penicillin-G+streptomycin sulfate.
# (§2) A simple screening procedure has been carried out to determine and compare the antitumour activity of these compounds, using an adapted form of the method described by Bergeron et al (1984). The tumour cell line employed were P-388 (suspension culture of a lymphoid neoplasm from DBA/2 mouse), A-549 (monolayer culture of a human lung carcinoma), HT-29 (monolayer culture of a human colon carcinoma) and MEL-28 (monolayer culture of a human melanoma).
# (§3) A-549, HT-29 and MEL-28 were seeded into 16 mm wells at 2×10^4 cells per well in 1 ml aliquots of MEM 10FCS containing the indicated concentration of drug. A separate set of cultures without drug was seeded as control growth to ensure that cells remained in exponential phase of growth. All determinations were carried out in duplicate. After three days of incubation at 37° C., 10% CO2 in a 98% humid atmosphere, the wells were stained with 0.1% Crystal Violet. An approximate IC50 was determined by comparing the growth in wells with drug to the growth in wells control.
# [2] = tested on: P-388 (suspension culture of a lymphoid neoplasm from DBA/2 mouse); assay: Antitumour screening, P-388 cell growth (adapted Bergeron method); details: approximate IC50, three days of incubation, growth vs control wells
# Experimental: as §1, §2
# P-388 cell were seeded into 16 mm wells at 1×10^4 cells per well in 1 ml aliquots of MEM 5FCS containing the indicated concentration of drug. A separate set of cultures without drug was seeded as control growth to ensure that cells remained in exponential phase of growth. All determinations were carried out in duplicate. After three days of incubation at 37° C., 10% CO2 in a 98% humid atmosphere, an approximate IC50 was determined by comparing the growth in wells with drug to the growth in wells contol.
# [3] = tested on: HT-29 (monolayer culture of a human colon carcinoma); assay: Antitumour screening, HT-29 cell growth (crystal violet); details: approximate IC50, three days of incubation
# Experimental: as §1, §2, §3
# [4] = tested on: MEL-28 (monolayer culture of a human melanoma); assay: Antitumour screening, MEL-28 cell growth (crystal violet); details: approximate IC50, three days of incubation
# Experimental: as §1, §2, §3
compound,measurement,setting,value
"C=CCC/C=C\C=C/CCCCCC[C@H]1CC[C@@H]([C@H]2CC[C@@H](CC(=O)OC)OO2)O1 [Methyl ester (1b), Stolonoxide A methyl ester]",IC50,"[1]; Homo sapiens, A549, 72 h",0.1 µg/mL
same,IC50,"[2]; Mus musculus, P388, 72 h",0.1 µg/mL
same,IC50,"[3]; Homo sapiens, HT-29, 72 h",0.1 µg/mL
Stolonoxide B methyl ester [Methyl ester (2b)],IC50 MEL 28,[4],0.5 µg/mL
same,IC50 A 549,[1],0.1 µg/mL
same,IC50 P 388,[2],0.5 µg/mL
same,IC50 HT 29,[3],0.1 µg/mL

# Source: patent US7153885B2, “Stolonoxides” (Universidad de Cadiz, priority 2000, dated 2006)
